Among the data in patent US7211572B2 (Japan Tobacco Inc., priority 2003, dated 2007) are IC50 values, retold here.

Counter-ions that a name gives are not always drawn.

The target in this experiment is T1, HIV integrase (Human immunodeficiency virus type 1 group M subtype B, UniProt P12497, F1332H).
T1 construct: HIV integrase full length gene; made in house; host or cells: Escherichia coli BL21(DE3), plasmid pET21a-INH
Briefly: Determination of enzyme (HIV integrase) inhibitory activity. The format is biochemical. As to conditions: recombinant HIV integrase (F185H), strand transfer ELISA, absorbance at 450 nm. In outline: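 Full-length integrase with F185H, expressed in E. coli and purified, was reacted for 60 min at 37 °C with compound and biotinylated donor DNA bound to streptavidin plates. Target DNA was added for 10 min, then anti-digoxigenin-peroxidase detection at A450; IC50 from % inhibition versus enzyme-free blank.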
For orientation: An ELISA detects its analyte on a solid surface through an enzyme-linked reagent.
Turning to `O=c1ccn2ccn(CCCc3c(F)cccc3Cl)c(=O)c2c1O` [Example 95, 2-[3-(2-chloro-6-fluorophenyl)propyl]-9-hydroxy-2H-pyrido[1,2-a]pyrazine-1,8-dione hydrochloride], the IC50 is 10 to 100 nM. Turning to `CCCc1cn(Cc2ccc(Cl)c(Cl)c2)c(=O)c2c(O)c(=O)ccn12` [Example 84, 2-(3,4-dichlorobenzyl)-9-hydroxy-4-propyl-2H-pyrido[1,2-a]pyrazine-1,8-dione], the IC50 was less than 10 nM.

As to `O=C1c2c(O)c(=O)ccn2CCN1Cc1ccc(Cl)c(Cl)c1` [Example 1, 2-(3,4-dichlorobenzyl)-9-hydroxy-3,4-dihydro-2H-pyrido[1,2-a]pyrazine-1,8-dione hydrochloride], the half-inhibitory concentration (IC50) was less than 10 nM. As for `O=c1ncn2ccn(Cc3ccc(Cl)c(Cl)c3)c(=O)c2c1O` [Example 12, 2-(3,4-dichlorobenzyl)-9-hydroxy-2H-pyrazino[1,2-a]pyrimidine-1,8-dione hydrochloride], the figure is 10 to 100 nM; as for `O=c1c(-c2nccs2)cn2ccn(Cc3cccc(Cl)c3)c(=O)c2c1O` [Example 163, 2-(3-chlorobenzyl)-9-hydroxy-7-(thiazol-2-yl)-2H-pyrido[1,2-a]pyrazine-1,8-dione hydrochloride], less than 10 nM; as for `O=c1c(-c2ccccc2O)cn2ccn(Cc3cccc(Cl)c3)c(=O)c2c1O` [Example 141, 2-(3-chlorobenzyl)-9-hydroxy-7-(2-hydroxyphenyl)-2H-pyrido[1,2-a]pyrazine-1,8-dione], less than 10 nM. The same measure for `O=C(Cc1cccnc1)Nc1cn2ccn(Cc3cccc(Cl)c3)c(=O)c2c(O)c1=O` [Example 400, N-[2-(3-chlorobenzyl)-9-hydroxy-1,8-dioxo-1,8-dihydro-2H-pyrido[1,2-a]pyrazin-7-yl]-2-(pyridin-3-yl)acetamide hydrochloride]: less than 10 nM; for `O=c1c(-c2cnccn2)cn2ccn(Cc3cccc(Cl)c3)c(=O)c2c1O` [Example 231, 2-(3-chlorobenzyl)-9-hydroxy-7-(pyrazin-2-yl)-2H-pyrido [1,2-a]pyrazine-1,8-dione hydrochloride]: less than 10 nM; for `O=c1ccn2ccn(Cc3cccc(Br)c3)c(=O)c2c1O` [Example 158, 2-(3-bromobenzyl)-9-hydroxy-2H-pyrido[1,2-a]pyrazine-1,8-dione hydrochloride]: 10 to 100 nM.

As to `COc1cc(Cl)ccc1Cn1ccn2ccc(=O)c(O)c2c1=O` [Example 166, 2-(4-chloro-2-methoxybenzyl)-9-hydroxy-2H-pyrido[1,2-a]pyrazine-1,8-dione hydrochloride], the IC50 fell in the range of 10 to 100 nM. As for `O=c1ccn2ccn(CCCc3cccc(Cl)c3Cl)c(=O)c2c1O` [Example 91, 2-[3-(2,3-dichlorophenyl)propyl]-9-hydroxy-2H-pyrido[1,2-a]pyrazine-1,8-dione hydrochloride], the figure is 10 to 100 nM; as for `CC(C)c1cn2ccn(Cc3cccc(Cl)c3)c(=O)c2c(O)c1=O` [Example 104, 2-(3-chlorobenzyl)-9-hydroxy-7-isopropyl-2H-pyrido[1,2-a]pyrazine-1,8-dione hydrochloride], 10 to 100 nM. As to `O=C(O)c1cn2ccn(Cc3cccc(Cl)c3)c(=O)c2c(O)c1=O` [Example 152, 2-(3-chlorobenzyl)-9-hydroxy-1,8-dioxo-1,8-dihydro-2H-pyrido[1,2-a]pyrazine-7-carboxylic acid hydrochloride], the concentration for half-maximal inhibition (IC50) fell in the range of 100 to 1000 nM. Regarding `CC(C)(C)CC(=O)Nc1cn2c(c(O)c1=O)C(=O)N(Cc1ccc(F)c(Cl)c1)CC2` [Example 406, N-[2-(3-chloro-4-fluorobenzyl)-9-hydroxy-1,8-dioxo-1,3,4,8-tetrahydro-2H-pyrido[1,2-a]pyrazin-7-yl]-3,3-dimethylbutyramide], the concentration for half-maximal inhibition (IC50) fell in the range of 10 to 100 nM.

As to `O=C(c1ccccc1)c1cc(=O)c(O)c2n1CCN(Cc1ccc(Cl)c(Cl)c1)C2=O` [Example 58, 6-benzoyl-2-(3,4-dichlorobenzyl)-9-hydroxy-3,4-dihydro-2H-pyrido[1,2-a]pyrazine-1,8-dione], the IC50 was less than 10 nM. With `O=C1c2c(O)c(=O)cc(-c3ccccc3)n2CCN1Cc1ccc(Cl)c(Cl)c1` [Example 49, 2-(3,4-dichlorobenzyl)-9-hydroxy-6-phenyl-3,4-dihydro-2H-pyrido[1,2-a]pyrazine-1,8-dione], the IC50 lay in the range of 10 to 100 nM.

Take `O=c1ccn2ncn(Cc3cccc(Cl)c3)c(=O)c2c1O` [Example 146, 3-(3-chlorobenzyl)-5-hydroxy-3H-pyrido[2,1-f][1,2,4]triazine-4,6-dione]: the IC50 fell in the range of 100 to 1000 nM.

Take `CCNC(=O)c1cn2ccn(Cc3cccc(Cl)c3)c(=O)c2c(O)c1=O` [Example 175, N-ethyl-2-(3-chlorobenzyl)-9-hydroxy-1,8-dioxo-1,8-dihydro-2H-pyrido[1,2-a]pyrazine-7-carboxamide]: the IC50 is less than 10 nM. In the case of `CCN(CC)C(=O)c1cc(=O)c(O)c2n1CCN(Cc1ccc(Cl)c(Cl)c1)C2=O` [Example 61, N,N-diethyl-2-(3,4-dichlorobenzyl)-9-hydroxy-1,8-dioxo-1,3,4,8-tetrahydro-2H-pyrido[1,2-a]pyrazine-6-carboxamide], the concentration for half-maximal inhibition (IC50) was 10 to 100 nM. As for `Cc1csc(-c2cn3c(c(O)c2=O)C(=O)N(Cc2cccc(Cl)c2)CC3)n1` [Example 255, 2-(3-chlorobenzyl)-9-hydroxy-7-(4-methylthiazol-2-yl)-3,4-dihydro-2H-pyrido[1,2-a]pyrazine-1,8-dione], the figure is less than 10 nM. As for `O=C(Cc1ccncc1)Nc1cn2ccn(Cc3cccc(Cl)c3)c(=O)c2c(O)c1=O` [Example 401, N-[2-(3-chlorobenzyl)-9-hydroxy-1,8-dioxo-1,8-dihydro-2H-pyrido[1,2-a]pyrazin-7-yl]-2-(pyridin-4-yl)acetamide hydrochloride], the concentration for half-maximal inhibition (IC50) lay in the range of 10 to 100 nM. As for `O=C(NCc1ccc(F)cc1)c1cn2ccn(Cc3cccc(Cl)c3)c(=O)c2c(O)c1=O` [Example 214, N-(4-fluorobenzyl)-2-(3-chlorobenzyl)-9-hydroxy-1,8-dioxo-1,8-dihydro-2H-pyrido[1,2-a]pyrazine-7-carboxamide], the IC50 is less than 10 nM. The same measure for `COCc1cc(=O)c(O)c2n1CCN(Cc1ccc(Cl)c(Cl)c1)C2=O` [Example 23, 2-(3,4-dichlorobenzyl)-9-hydroxy-6-methoxymethyl-3,4-dihydro-2H-pyrido[1,2-a]pyrazine-1,8-dione]: 10 to 100 nM; for `COCC(C)(C)C(=O)c1cn2c(c(O)c1=O)C(=O)N(Cc1ccc(F)cc1)CC2` [Example 389, 2-(4-fluorobenzyl)-9-hydroxy-7-(3-methoxy-2,2-dimethylpropionyl)-3,4-dihydro-2H-pyrido[1,2-a]pyrazine-1,8-dione]: 10 to 100 nM. As for `O=c1ccn2c(CO)cn(Cc3cccc(Cl)c3)c(=O)c2c1O` [Example 102, 2-(3-chlorobenzyl)-9-hydroxy-4-hydroxymethyl-2H-pyrido[1,2-a]pyrazine-1,8-dione], the figure is 10 to 100 nM.

Regarding `CC(=O)Nc1cn2c(C)cn(Cc3cccc(Cl)c3)c(=O)c2c(O)c1=O` [Example 423, N-[2-(3-chlorobenzyl)-9-hydroxy-4-methyl-1,8-dioxo-1,8-dihydro-2H-pyrido[1,2-a]pyrazin-7-yl]acetamide], the concentration for half-maximal inhibition (IC50) lay within 10 to 100 nM. As to `CC(C)CNc1cn2ccn(Cc3cccc(Cl)c3)c(=O)c2c(O)c1=O` [Example 283, 2-(3-chlorobenzyl)-9-hydroxy-7-isobutylamino-2H-pyrido[1,2-a]pyrazine-1,8-dione hydrochloride], the IC50 was 10 to 100 nM. For `CC(O)CNC(=O)c1cn2ccn(Cc3cccc(Cl)c3)c(=O)c2c(O)c1=O` (centres unmarked) [Example 192, N-(2-hydroxypropyl)-2-(3-chlorobenzyl)-9-hydroxy-1,8-dioxo-1,8-dihydro-2H-pyrido[1,2-a]pyrazine-7-carboxamide hydrochloride], the half-inhibitory concentration (IC50) was in the range of 10 to 100 nM.

Regarding `N#Cc1cn(Cc2cccc(Cl)c2)c(=O)c2c(O)c(=O)ccn12` [Example 107, 2-(3-chlorobenzyl)-9-hydroxy-1,8-dioxo-1,8-dihydro-2H-pyrido[1,2-a]pyrazine-4-carbonitrile], the IC50 is 10 to 100 nM. For the compound `CC(C)(C)C(=O)c1cn2c(CO)cn(Cc3ccc(F)c(Cl)c3)c(=O)c2c(O)c1=O` [Example 241, 2-(3-chloro-4-fluorobenzyl)-7-(2,2-dimethylpropionyl)-9-hydroxy-4-hydroxymethyl-2H-pyrido[1,2-a]pyrazine-1,8-dione hydrochloride], the IC50 was less than 10 nM.

For `CC(C)(C)C(O)c1cc(=O)c(O)c2n1CCN(Cc1ccc(Cl)c(Cl)c1)C2=O` (centres unmarked) [Example 68, 2-(3,4-dichlorobenzyl)-9-hydroxy-6-(1-hydroxy-2,2-dimethylpropyl)-3,4-dihydro-2H-pyrido[1,2-a]pyrazine-1,8-dione], the half-maximal inhibitory concentration (IC50) fell in the range of 10 to 100 nM. In the case of `CC(C)(C)c1cc(=O)c(O)c2n1CCN(Cc1ccc(Cl)c(Cl)c1)C2=O` [Example 67, 6-tert-butyl-2-(3,4-dichlorobenzyl)-9-hydroxy-3,4-dihydro-2H-pyrido[1,2-a]pyrazine-1,8-dione], the IC50 lay within 10 to 100 nM. `Cc1cn(Cc2ccc(Cl)c(Cl)c2)c(=O)c2c(O)c(=O)ccn12` [Example 72, 2-(3,4-dichlorobenzyl)-9-hydroxy-4-methyl-2H-pyrido[1,2-a]pyrazine-1,8-dione hydrochloride]: the half-maximal inhibitory concentration (IC50) was less than 10 nM. Turning to `O=C1c2c(O)c(=O)c(-c3nccs3)cn2CCN1Cc1ccc(Cl)cc1O` [Example 350, 2-(4-chloro-2-hydroxybenzyl)-9-hydroxy-7-(thiazol-2-yl)-3,4-dihydro-2H-pyrido[1,2-a]pyrazine-1,8-dione hydrochloride], the IC50 is less than 10 nM. Regarding `O=C1c2c(O)c(=O)ccn2CCN1Cc1ccccc1Cl` [Example 65, 2-(2-chlorobenzyl)-9-hydroxy-3,4-dihydro-2H-pyrido[1,2-a]pyrazine-1,8-dione], the IC50 was in the range of 100 to 1000 nM.

Broadly, the IC50 is the concentration that inhibits the measured activity by half.
